Test results published in PMC5218480 (PLoS ONE, 2017).

Test system: MV-4-11 cells
Experiment: Gene expression microarray analysis (Affymetrix PrimeView) and GSEA
Type: cell-based, human
Parameters: RFU PODN (11730768_x_at) / Fold change /veh PODN (11730768_x_at) / RFU LINC00158 (11744669_a_at) / Fold change /veh LINC00158 (11744669_a_at) / RFU DUSP10 (11751237_a_at) / Fold change /veh DUSP10 (11751237_a_at) / RFU ID3 (11757404_x_at) / Fold change /veh ID3 (11757404_x_at) / RFU PLEKHG5 (11737974_s_at) / Fold change /veh PLEKHG5 (11737974_s_at) / RFU LRRC4B (11730491_at) / Fold change /veh LRRC4B (11730491_at) / RFU GIMAP4 (11747438_a_at) / Fold change /veh GIMAP4 (11747438_a_at) / RFU KRT8 (11758183_x_at) / Fold change /veh KRT8 (11758183_x_at) / RFU CNN1 (11734310_a_at) / Fold change /veh CNN1 (11734310_a_at) / RFU VPS37D (11726825_at) / Fold change /veh VPS37D (11726825_at) / RFU C10orf10 (11716522_x_at) / Fold change /veh C10orf10 (11716522_x_at) / RFU KIR2DL2 /// KIR2DL4 /// KIR2DL5A /// KIR2DL5B /// KIR2DS1 /// KIR2DS2 /// KIR2DS3 /// KIR2DS4 /// KIR3DL3 /// KIR3DL3 /// KIR3DS1 (11738374_at) / Fold change /veh KIR2DL2 /// KIR2DL4 /// KIR2DL5A /// KIR2DL5B /// KIR2DS1 /// KIR2DS2 /// KIR2DS3 /// KIR2DS4 /// KIR3DL3 /// KIR3DL3 /// KIR3DS1 (11738374_at) / RFU C1QL1 (11718748_at) / Fold change /veh C1QL1 (11718748_at) / RFU TMPRSS4 (11747572_a_at) / Fold change /veh TMPRSS4 (11747572_a_at) / RFU HAMP (11756126_x_at) / Fold change /veh HAMP (11756126_x_at) / RFU RNFT2 (11725882_a_at) / Fold change /veh RNFT2 (11725882_a_at) / RFU NR4A2 (11747474_a_at) / Fold change /veh NR4A2 (11747474_a_at) / RFU ABCC12 (11746883_a_at) / Fold change /veh ABCC12 (11746883_a_at) / RFU TMEM136 (11760407_x_at) / Fold change /veh TMEM136 (11760407_x_at) / RFU CLDN22 /// WWC2 (11732394_at) / Fold change /veh CLDN22 /// WWC2 (11732394_at) / RFU HLA-DPB1 (11760878_x_at) / Fold change /veh HLA-DPB1 (11760878_x_at) / RFU SPINT1 (11716480_a_at) / Fold change /veh SPINT1 (11716480_a_at) / RFU GAP43 (11754022_s_at) / Fold change /veh GAP43 (11754022_s_at) / RFU A4GNT (11735810_at) / Fold change /veh A4GNT (11735810_at) / RFU PRB3 (11715151_x_at) / Fold change /veh PRB3 (11715151_x_at) / RFU TUBB4B (11761932_at) / Fold change /veh TUBB4B (11761932_at) / RFU CAPN14 (11732068_a_at) / Fold change /veh CAPN14 (11732068_a_at) / RFU TMCC2 (11721928_a_at) / Fold change /veh TMCC2 (11721928_a_at) / RFU IRGQ (11745062_a_at) / Fold change /veh IRGQ (11745062_a_at) / RFU FAM174B (11720279_a_at) / Fold change /veh FAM174B (11720279_a_at) / RFU TMPRSS4 (11748680_a_at) / Fold change /veh TMPRSS4 (11748680_a_at) / RFU FAM212B (11763350_a_at) / Fold change /veh FAM212B (11763350_a_at) / RFU PLEKHG5 (11743358_a_at) / Fold change /veh PLEKHG5 (11743358_a_at) / RFU ZSCAN30 (11745921_a_at) / Fold change /veh ZSCAN30 (11745921_a_at) / RFU CMKLR1 (11741424_a_at) / Fold change /veh CMKLR1 (11741424_a_at) / RFU LOC101060620 /// MAPK8IP1 (11723275_at) / Fold change /veh LOC101060620 /// MAPK8IP1 (11723275_at) / RFU SPTSSB (11747773_x_at) / Fold change /veh SPTSSB (11747773_x_at) / RFU PRSS12 (11739890_at) / Fold change /veh PRSS12 (11739890_at) / RFU BIN1 (11741810_x_at) / Fold change /veh BIN1 (11741810_x_at) / RFU WNT11 (11732464_a_at) / Fold change /veh WNT11 (11732464_a_at) / RFU C10orf10 (11716521_a_at) / Fold change /veh C10orf10 (11716521_a_at) / RFU C5orf56 (11738089_at) / Fold change /veh C5orf56 (11738089_at) / RFU CYB561 (11721691_x_at) / Fold change /veh CYB561 (11721691_x_at) / RFU ANKRD19P (11752326_a_at) / Fold change /veh ANKRD19P (11752326_a_at) / RFU OR2T12 /// OR2T33 /// OR2T8 (11738714_s_at) / Fold change /veh OR2T12 /// OR2T33 /// OR2T8 (11738714_s_at) / RFU VCAN (11748164_a_at) / Fold change /veh VCAN (11748164_a_at) / RFU JSRP1 (11732532_at) / Fold change /veh JSRP1 (11732532_at) / RFU KRTAP10-11 (11738290_x_at) / Fold change /veh KRTAP10-11 (11738290_x_at) / RFU MYO3A (11730013_a_at) / Fold change /veh MYO3A (11730013_a_at) / RFU EBF3 (11725865_a_at) / Fold change /veh EBF3 (11725865_a_at) / RFU CAMK2N1 (11719241_x_at) / Fold change /veh CAMK2N1 (11719241_x_at) / RFU C5orf56 (11738088_a_at) / Fold change /veh C5orf56 (11738088_a_at) / RFU OLFML3 (11715873_a_at) / Fold change /veh OLFML3 (11715873_a_at) / RFU LOC100653217 /// NTM (11731650_a_at) / Fold change /veh LOC100653217 /// NTM (11731650_a_at) / RFU MAPK11 (11762145_a_at) / Fold change /veh MAPK11 (11762145_a_at) / RFU FIZ1 (11724087_x_at) / Fold change /veh FIZ1 (11724087_x_at) / RFU OASL (11726364_x_at) / Fold change /veh OASL (11726364_x_at) / RFU SOX15 (11748057_x_at) / Fold change /veh SOX15 (11748057_x_at) / RFU CD79A (11719716_a_at) / Fold change /veh CD79A (11719716_a_at) / RFU HIST1H1D (11736915_at) / Fold change /veh HIST1H1D (11736915_at) / RFU CASKIN2 (11723855_a_at) / Fold change /veh CASKIN2 (11723855_a_at) / RFU LOC730098 (11760151_x_at) / Fold change /veh LOC730098 (11760151_x_at) / RFU OR4N2 (11742367_at) / Fold change /veh OR4N2 (11742367_at) / RFU PRRT2 (11749266_a_at) / Fold change /veh PRRT2 (11749266_a_at) / RFU SNX32 (11753110_a_at) / Fold change /veh SNX32 (11753110_a_at) / RFU CDHR5 (11726645_a_at) / Fold change /veh CDHR5 (11726645_a_at) / RFU RCAN1 (11760418_a_at) / Fold change /veh RCAN1 (11760418_a_at) / RFU FAM167A (11723789_a_at) / Fold change /veh FAM167A (11723789_a_at) / RFU FAM26E (11764081_at) / Fold change /veh FAM26E (11764081_at) / RFU ISYNA1 (11749810_s_at) / Fold change /veh ISYNA1 (11749810_s_at) / RFU ACY1 (11761880_at) / Fold change /veh ACY1 (11761880_at) / RFU 11764098_at / Fold change /veh 11764098_at / RFU SAMD14 (11745864_x_at) / Fold change /veh SAMD14 (11745864_x_at) / RFU NPB (11741838_a_at) / Fold change /veh NPB (11741838_a_at) / RFU TMPRSS6 (11731388_a_at) / Fold change /veh TMPRSS6 (11731388_a_at) / RFU KRTAP10-2 (11738614_at) / Fold change /veh KRTAP10-2 (11738614_at) / RFU ARHGAP8 /// PRR5-ARHGAP8 (11727945_x_at) / Fold change /veh ARHGAP8 /// PRR5-ARHGAP8 (11727945_x_at) / RFU KRTAP5-7 /// NADSYN1 (11734609_at) / Fold change /veh KRTAP5-7 /// NADSYN1 (11734609_at) / RFU RASL12 (11751679_a_at) / Fold change /veh RASL12 (11751679_a_at) / RFU CDKN2B (11736163_a_at) / Fold change /veh CDKN2B (11736163_a_at) / RFU PRF1 (11729649_at) / Fold change /veh PRF1 (11729649_at) / RFU, ZNF638 /// ZNF638-IT1 / Fold change vs veh, ZNF638 /// ZNF638-IT1 / RFU, PANK3 / Fold change vs veh, PANK3 / RFU, SH3YL1 / Fold change vs veh, SH3YL1 / RFU, ZEB2 / Fold change vs veh, ZEB2 / RFU, NRIP1 / Fold change vs veh, NRIP1 / RFU, PTTG1IP / Fold change vs veh, PTTG1IP / RFU, CAPN2 / Fold change vs veh, CAPN2 / RFU, MED14 / Fold change vs veh, MED14 / RFU, SNORA58 / Fold change vs veh, SNORA58 / RFU, C1orf63 / Fold change vs veh, C1orf63 / RFU, LRRFIP1 / Fold change vs veh, LRRFIP1 / RFU, NDUFAF7 / Fold change vs veh, NDUFAF7 / RFU, SLC12A2 / Fold change vs veh, SLC12A2 / RFU, IBTK / Fold change vs veh, IBTK / RFU, ESF1 / Fold change vs veh, ESF1 / Fold change vs veh, TMEM50B / RFU, TAOK1 / Fold change vs veh, TAOK1 / RFU, ACBD3 / Fold change vs veh, ACBD3 / RFU, TMA16 / Fold change vs veh, TMA16 / RFU, RWDD3 / Fold change vs veh, RWDD3 / RFU, BCAT1 / Fold change vs veh, BCAT1 / RFU, EDEM3 / Fold change vs veh, EDEM3 / RFU, TMEM33 / Fold change vs veh, TMEM33 / RFU, WDR75 / Fold change vs veh, WDR75 / RFU, AHCTF1 / Fold change vs veh, AHCTF1 / RFU, TFRC / Fold change vs veh, TFRC / RFU, ZDHHC17 / Fold change vs veh, ZDHHC17 / RFU, NOM1 / Fold change vs veh, NOM1 / RFU, ARL8B / Fold change vs veh, ARL8B / RFU, ZBTB11 / Fold change vs veh, ZBTB11 / RFU, TAMM41 / Fold change vs veh, TAMM41 / RFU, KIAA1704 /// LOC100996395 / Fold change vs veh, KIAA1704 /// LOC100996395 / RFU, ING1 / Fold change vs veh, ING1 / RFU, TRMT61B / Fold change vs veh, TRMT61B / RFU, FUBP3 / Fold change vs veh, FUBP3 / RFU, TP53 / Fold change vs veh, TP53 / RFU, TNKS2 / Fold change vs veh, TNKS2 / RFU, ZFP14 / Fold change vs veh, ZFP14 / RFU, ACTR2 / Fold change vs veh, ACTR2 / RFU, PPP3R1 / Fold change vs veh, PPP3R1 / RFU, PIK3R1 / Fold change vs veh, PIK3R1 / RFU, HNRNPA1 / Fold change vs veh, HNRNPA1 / RFU, RNF170 / Fold change vs veh, RNF170 / RFU, ZNF28 / Fold change vs veh, ZNF28 / RFU, RNGTT / Fold change vs veh, RNGTT / RFU, OGT / Fold change vs veh, OGT / RFU, BRD1 / Fold change vs veh, BRD1 / RFU, MARS / Fold change vs veh, MARS / RFU, ZNF655 / Fold change vs veh, ZNF655 / RFU, FAHD1 / Fold change vs veh, FAHD1 / RFU, BDP1 / Fold change vs veh, BDP1 / RFU, LRRCC1 / Fold change vs veh, LRRCC1 / RFU, ARID1A / Fold change vs veh, ARID1A / RFU, ZNF146 / Fold change vs veh, ZNF146 / RFU, ZNF330 / Fold change vs veh, ZNF330 / RFU, GPN3 / Fold change vs veh, GPN3 / RFU, C9orf123 / Fold change vs veh, C9orf123 / RFU, N4BP2L2 / Fold change vs veh, N4BP2L2 / RFU, ARFIP1 / Fold change vs veh, ARFIP1 / RFU, FAM179B / Fold change vs veh, FAM179B / RFU, BCL10 / Fold change vs veh, BCL10 / RFU, UHRF1BP1L / Fold change vs veh, UHRF1BP1L / RFU, BET1 / Fold change vs veh, BET1 / RFU, CNOT2 / Fold change vs veh, CNOT2 / RFU, ZNF268 / Fold change vs veh, ZNF268 / Fold change vs veh, ZNF507 / RFU, DGCR2 / Fold change vs veh, DGCR2 / RFU, WDSUB1 / Fold change vs veh, WDSUB1 / Fold change vs veh, HSP90B1 /// MIR3652 / RFU, ADSS / Fold change vs veh, ADSS / RFU, GK / Fold change vs veh, GK / RFU, ZNF148 / Fold change vs veh, ZNF148 / RFU, TAF9 / Fold change vs veh, TAF9 / RFU, SLC1A5 / Fold change vs veh, SLC1A5 / RFU, SLMO2 / Fold change vs veh, SLMO2 / RFU, ABCC4 / Fold change vs veh, ABCC4 / RFU, LOC101060439 /// RAP1B / Fold change vs veh, LOC101060439 /// RAP1B / RFU, RFX7 / Fold change vs veh, RFX7 / RFU, GTPBP10 / Fold change vs veh, GTPBP10 / RFU, CNEP1R1 / Fold change vs veh, CNEP1R1 / RFU, BIVM-ERCC5 /// ERCC5 / Fold change vs veh, BIVM-ERCC5 /// ERCC5 / RFU, ILF3 / Fold change vs veh, ILF3 / RFU 11762660_at / Fold change /veh 11762660_at / RFU VCAN (11757783_s_at) / Fold change /veh VCAN (11757783_s_at) / RFU DDX43 (11728927_at) / Fold change /veh DDX43 (11728927_at) / RFU KRT8 (11758188_x_at) / Fold change /veh KRT8 (11758188_x_at) / RFU NKD1 (11759106_at) / Fold change /veh NKD1 (11759106_at) / RFU SRD5A1 (11742802_a_at) / Fold change /veh SRD5A1 (11742802_a_at) / RFU TPSAB1 /// TPSB2 (11721975_s_at) / Fold change /veh TPSAB1 /// TPSB2 (11721975_s_at) / RFU GSTM3 (11746129_a_at) / Fold change /veh GSTM3 (11746129_a_at) / RFU IL23R (11737362_x_at) / Fold change /veh IL23R (11737362_x_at) / RFU TMEM51 (11727254_a_at) / Fold change /veh TMEM51 (11727254_a_at) / RFU PIWIL2 (11732686_x_at) / Fold change /veh PIWIL2 (11732686_x_at) / RFU ORM1 (11744905_x_at) / Fold change /veh ORM1 (11744905_x_at) / RFU CCDC152 (11743942_at) / Fold change /veh CCDC152 (11743942_at) / RFU ECM1 (11717891_a_at) / Fold change /veh ECM1 (11717891_a_at) / RFU IL23R (11748794_a_at) / Fold change /veh IL23R (11748794_a_at) / RFU TNFAIP8L3 (11732012_x_at) / Fold change /veh TNFAIP8L3 (11732012_x_at) / RFU MBOAT4 (11741988_at) / Fold change /veh MBOAT4 (11741988_at) / RFU 11764193_at / Fold change /veh 11764193_at / RFU TMEM53 (11763286_at) / Fold change /veh TMEM53 (11763286_at) / RFU MAGEB2 (11727129_at) / Fold change /veh MAGEB2 (11727129_at) / RFU TMEM200A (11744735_a_at) / Fold change /veh TMEM200A (11744735_a_at) / RFU CCDC152 (11751479_a_at) / Fold change /veh CCDC152 (11751479_a_at) / RFU FAM211A (11726209_a_at) / Fold change /veh FAM211A (11726209_a_at) / RFU RGS16 (11746705_a_at) / Fold change /veh RGS16 (11746705_a_at) / RFU VCAN (11755009_s_at) / Fold change /veh VCAN (11755009_s_at) / RFU RHOB (11743442_s_at) / Fold change /veh RHOB (11743442_s_at) / RFU RGS16 (11720943_a_at) / Fold change /veh RGS16 (11720943_a_at) / RFU RGS16 (11720944_at) / Fold change /veh RGS16 (11720944_at) / RFU, VPS4B / Fold change vs veh, VPS4B / RFU, CREB1 / Fold change vs veh, CREB1 / RFU, DNAJC13 / Fold change vs veh, DNAJC13 / RFU, GNAQ / Fold change vs veh, GNAQ / RFU, CDK5R1 / Fold change vs veh, CDK5R1 / RFU, ZRANB3 / Fold change vs veh, ZRANB3 / RFU, CUL4A / Fold change vs veh, CUL4A / RFU, CCNY / Fold change vs veh, CCNY / RFU, UFL1 / Fold change vs veh, UFL1 / RFU, COG3 / Fold change vs veh, COG3 / RFU, DIAPH2 / Fold change vs veh, DIAPH2 / RFU, SKA2 / Fold change vs veh, SKA2 / RFU, AFF3 / Fold change vs veh, AFF3 / RFU, LMF1 / Fold change vs veh, LMF1 / RFU, IPO11 / Fold change vs veh, IPO11 / RFU, DFFB / Fold change vs veh, DFFB / RFU, FOXP1 / Fold change vs veh, FOXP1 / RFU, CARD8 / Fold change vs veh, CARD8 / RFU, STRN3 / Fold change vs veh, STRN3 / RFU, ADK / Fold change vs veh, ADK / RFU, RASSF2 / Fold change vs veh, RASSF2 / RFU, WIPF1 / Fold change vs veh, WIPF1 / RFU, LARP1B / Fold change vs veh, LARP1B / RFU, RASA1 / Fold change vs veh, RASA1 / RFU, RB1 / Fold change vs veh, RB1 / RFU, PPFIA1 / Fold change vs veh, PPFIA1 / RFU, MAT2A / Fold change vs veh, MAT2A / RFU, CCT5 / Fold change vs veh, CCT5 / RFU, WDR92 / Fold change vs veh, WDR92 / RFU, CUX1 / Fold change vs veh, CUX1 / RFU, TTC7A / Fold change vs veh, TTC7A / RFU, TMEM135 / Fold change vs veh, TMEM135 / RFU, DEPTOR / Fold change vs veh, DEPTOR / RFU, CPM / Fold change vs veh, CPM / RFU, DNAJB6 / Fold change vs veh, DNAJB6 / RFU, CACNA2D3 / Fold change vs veh, CACNA2D3 / RFU, DTX4 / Fold change vs veh, DTX4 / RFU, TFCP2 / Fold change vs veh, TFCP2 / RFU, GMCL1 /// GMCL1P1 / Fold change vs veh, GMCL1 /// GMCL1P1 / RFU, AEBP2 / Fold change vs veh, AEBP2 / RFU, SNHG1 /// SNORD22 /// SNORD25 /// SNORD26 /// SNORD27 /// SNORD28 /// SNORD29 /// SNORD31 / Fold change vs veh, SNHG1 /// SNORD22 /// SNORD25 /// SNORD26 /// SNORD27 /// SNORD28 /// SNORD29 /// SNORD31 / Fold change (Aza/veh), C12orf56 (ProbeSet 11735607_a_at) / Fold change (ACY-1035/veh), C12orf56 (ProbeSet 11735607_a_at) / Fold change (Aza/veh), FGFR1OP (ProbeSet 11751329_s_at) / Fold change (ACY-1035/veh), FGFR1OP (ProbeSet 11751329_s_at) / Fold change (Aza/veh), VPS36 (ProbeSet 11739960_a_at) / Fold change (ACY-1035/veh), VPS36 (ProbeSet 11739960_a_at) / RFU SYPL1 (11715823_x_at) / Fold change /veh SYPL1 (11715823_x_at) / RFU IGFBP7 (11715501_s_at) / Fold change /veh IGFBP7 (11715501_s_at) / RFU REEP3 (11722064_at) / Fold change /veh REEP3 (11722064_at) / RFU IGLL1 (11728026_x_at) / Fold change /veh IGLL1 (11728026_x_at): dose or concentration left out as unconfirmed
Details: ProbeSet 11716931_at; LIST B

## Nc1ccc(-c2cccs2)cc1NC(=O)c1ccc2c(c1)cc(C1CC1)n2CCN1CCOCC1 [ACY-1035]
  RFU, DGCR2: 215.86 RFU
